Here are results for five molecules from publication PMC10815170, “Exploring the Blood Glucose-Lowering Potential of the Umami Peptides LADW and EEAEGT Derived from Tuna Skeletal Myosin: Perspectives from α-Glucosidase Inhibition and Starch Interaction” (Foods, 2024).

Peptide text beside a SMILES is read from it.

The conditions of series [1]: sensory evaluation in previous work; ref [7]; cited from earlier work. An excerpt:
The intestinal stability, non-toxicity, and absorbability of peptides were considered important indicators for identifying bioactive peptides. In our previous work, these peptides were also confirmed to be non-toxic by sensory evaluation, and the peptides LADW and […] were obtained by hydrolysis with three common enzymes (pepsin, trypsin, and chymotrypsin) in the GI tract. […] Therefore, the potential α-GIPs identified in this study were presumed to withstand hy ...

Series [2] concerns the target T1, α-Glucosidase from Saccharomyces cerevisiae (Saccharomyces cerevisiae, UniProt P53341).
T1 construct: purchased Yuanye Bio-Technology Co., Ltd. (Shanghai, China)
In words: α-Glucosidase inhibitory activity (pNPG). The format is biochemical. Conditions: PBS pH 6.8, 37 °C, 405 nm; for α-glucosidase inhibitory rate: 10 mM peptide, pNPG, n = 3; for IC50: 15 min preincubation, pNPG 15 min, mean ± SD (n = 3), read-out: IC50 value, α-glucosidase inhibition. An excerpt:
α-Glucosidase from Saccharomyces cerevisiae (activity ≥ 30 U/mg) and porcine bile salt (purity ≥ 60.0%) were obtained from Yuanye Bio-Technology Co., Ltd. (Shanghai, China). Pepsin (activity ≥ 800 U/mg), pancreatin (activity ≥ 4000 U/g), and amyloglucosidase (activity ≥ 10,000 U/g) were obtained from Shanghai Ryon Biological Technology Co., Ltd. The p-nitrobenzene-α-D-glucopyranoside (pNPG, purity ≥ 99.0%) was purchased from Sigma-Aldrich (Shanghai, China). Peptides LADW and EEAEGT (purity ≥ 98.0%) were synthesized by ALL PEPTIDE Biology Co., Ltd. (Hangzhou, China). All other chemicals and solvents were of analytical grade.
α-Glucosidase inhibitory activity was determined following the method of Zheng et al., with slight modifications. Briefly, 80.0 μL of phosphate-buffered saline (PBS, pH = 6.8), 20.0 μL of α-glucosidase (7 U/mL, dissolved in PBS), and 20.0 μL of the peptide (dissolved in PBS) were mixed and incubated at 37 °C for 15 min. Subsequently, 20.0 μL of pNPG (2.5 mM, dissolved in PBS) was added to the mixture, followed by another incubation at 37 °C for 15 min. To terminate the reaction, 60 μL of Na2CO3 (0.2 M, dissolved in PBS) was added, and the absorbance was measured at 405 nm using a SpectraMax M5 microplate reader (Molecular Devices, Sunnyvale, CA, USA). The α-glucosidase inhibitory rate (%) was determined using the following formula:α-glucosidase inhibitory rate (%) = [1 − (Asample − Asample blank)/(Acontrol − Acontrol blank)] × 100 where Asample and Asample blank were the absorbance values with and without α-glucosidase added, respectively; Acontrol and Acontrol blank were the absorbance values with and without peptide solution added, respectively, after replacing α-glucosidase solution with PBS solution. The above solution without addition was replaced by PBS solution.

The conditions of series [3]: sensory evaluation in previous work; ref [7]; cited from earlier work. From the text: Table 1 Prediction results of physicochemical properties and potential activity of peptides. | column: Umami Threshold (mg/mL)
This is another data set of the same source.

Details of series [4]: method as in PMID 8001624. Conditions: clinical practice; ref [3]; cited from earlier work.

T1 sequence (P53341 whole entry): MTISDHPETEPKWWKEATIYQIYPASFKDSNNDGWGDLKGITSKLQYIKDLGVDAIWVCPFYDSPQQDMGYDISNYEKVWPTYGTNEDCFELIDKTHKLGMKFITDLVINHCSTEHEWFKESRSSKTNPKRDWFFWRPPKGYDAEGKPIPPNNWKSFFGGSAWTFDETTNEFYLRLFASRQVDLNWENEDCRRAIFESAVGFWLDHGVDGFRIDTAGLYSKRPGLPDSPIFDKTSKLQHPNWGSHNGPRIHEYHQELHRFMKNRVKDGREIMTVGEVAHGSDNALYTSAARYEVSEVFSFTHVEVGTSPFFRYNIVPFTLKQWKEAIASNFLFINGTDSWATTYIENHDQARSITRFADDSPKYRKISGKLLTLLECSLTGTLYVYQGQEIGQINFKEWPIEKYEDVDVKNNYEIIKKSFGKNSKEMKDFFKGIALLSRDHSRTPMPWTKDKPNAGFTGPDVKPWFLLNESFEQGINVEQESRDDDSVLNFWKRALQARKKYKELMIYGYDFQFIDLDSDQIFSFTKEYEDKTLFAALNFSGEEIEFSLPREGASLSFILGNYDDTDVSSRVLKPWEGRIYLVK

As for `CC(C)C[C@H](N)C(=O)N[C@@H](C)C(=O)N[C@@H](CC(=O)O)C(=O)N[C@@H](Cc1c[nH]c2ccccc12)C(=O)O` [LADW] (H-LADW-OH), the Toxicity result in series [1] was “non-toxic”. Moreover, in series [2], the α-glucosidase inhibitory rate is reported as 98.15% and the IC50 (usually the concentration that inhibits the measured activity by half) was 4.4 ± 0.04 mM. As for “MEIDD [novel umami peptide identified in the hydrolysate of tuna skeletal myosin]”, in series [3], the “Umami Threshold” value is recorded as 0.250 mg/mL. With `C[C@H](NC(=O)[C@H](CCC(=O)O)NC(=O)[C@@H](N)CCC(=O)O)C(=O)N[C@@H](CCC(=O)O)C(=O)NCC(=O)N[C@H](C(=O)O)[C@@H](C)O` [EEAEGT] (H-EEAEGT-OH), the Toxicity entry in series [1] was “non-toxic”. For the same molecule, in series [2], the α-glucosidase inhibitory rate was 96.44% and the IC50 worked out at 6.46 ± 0.22 mM. Take `C[C@H]1O[C@H](O[C@H]2[C@H](O)[C@@H](O)[C@@H](O[C@H]3[C@H](O)[C@@H](O)C(O)O[C@@H]3CO)O[C@@H]2CO)[C@H](O)[C@@H](O)[C@@H]1N[C@H]1C=C(CO)[C@@H](O)[C@H](O)[C@H]1O` (stereo partly drawn) [acarbose]: the Adverse effects entry in series [4] is “flatulence, diarrhea, and abdominal pain”. For “VAEQE [novel umami peptide identified in the hydrolysate of tuna skeletal myosin]”, the “Umami Threshold” value in series [3] is 0.125 mg/mL.
